Source: US7264932B2, “Nuclease inhibitor cocktail” (Applera Corporation, priority 1999, dated 2007)
Where “and” joins values, the source holds several entries; their conditions need not be identical. Identical values can stand only once.

Tests used:
RNase A, 1, and T1 = assay: Anti-RNase antibodies / Specific Anti-RNase Cocktail with added non-antibody inhibitor; format: biochemical; settings: for effect on action of Specific Anti-RNase Cocktail against RNase A, 1, and T1: detergent added to cocktail at 0.1% to 1%
Protocol: (§1) The activity of an anti-nuclease cocktail is readily determined using radiolabeled RNA or DNA to detect the inhibition of nuclease by anti-nuclease antibodies in the anti-nuclease cocktail. […] Assay buffer, nuclease and an anti-nuclease cocktail are then added to 0.5 ml microfuge tubes. A mixture comprising assay buffer, RNA or DNA and radiolabeled RNA or DNA is added to the microfuge tubes, and the tubes are vortexed and microfuged. After incubation of the tubes at 37° C. for 30 minutes, a portion of the tube contents is removed and placed into gel loading buffer. After mixing, the combination is loaded onto a gel, typically a 8M urea/5% acrylamide gel, which is exposed to film.
(§2) Radiolabeled RNA was used to detect the inhibition of RNase A, RNase T1, and RNase 1 by specific antibodies.
(§3) The “MIX” was prepared by combining 10× Assay Buffer (0.9 μl/rxn), 5 mg/ml yeast RNA (0.4 μl/rxn), ^32P-labeled β actin RNA (1 μl/rxn), and nuclease-free H2O (6.7 μl/rxn), for a total of 9 μl/rxn.
(§4) 1× Assay Buffer was added first. Then Specific RNase Cocktail, Specific Anti-RNase Cocktail and MIX were added. The tubes are vortexed and microfuged, then incubated at 37° C. for 30 min (Table 9).
(§5) At the end of the incubation time, 10 μl of solution was removed from the tube and placed into 10 μl Gel Loading Buffer II. The combination was mixed thoroughly and loaded onto a 8M urea/5% acrylamide gel. The gel was exposed to film for 30 min. at −80° C. with an intensifying screen.

DNase I = DNase I (Bos taurus, UniProt P00639); assay: Lambda DNA digestion assay with DNase I; format: biochemical; settings: 0.1 U DNase, inhibitor at 5×Ki
Sequence of DNase I (P00639 23-282): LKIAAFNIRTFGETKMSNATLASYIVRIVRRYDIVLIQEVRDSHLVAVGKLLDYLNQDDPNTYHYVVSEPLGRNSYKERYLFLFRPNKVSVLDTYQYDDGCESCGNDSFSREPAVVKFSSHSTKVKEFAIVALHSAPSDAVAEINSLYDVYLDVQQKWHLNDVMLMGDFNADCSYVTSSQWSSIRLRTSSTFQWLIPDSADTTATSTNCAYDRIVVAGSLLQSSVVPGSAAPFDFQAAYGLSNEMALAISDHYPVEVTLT
Excerpt: One application for small molecule RNase inhibitors is as an RNA control agent during enzymatic manipulation of solutions containing RNA. These reactions include in vitro transcription, in vitro translation, DNase digestion, and reverse transcription, among others. […] […] […] All reactions were quenched with EDTA and the cleavage products resolved on a 1% agarose gel.
As a result, compounds such as #467929, 140553, and 180582 may have utility in curbing the activity of residual RNases that may carry over from RNA isolation methods during DNase treatments of the RNA.

nuclease = nuclease (Homo sapiens, UniProt P03950); assay: Ki of Lead 1 and Lead 2 analogs (Tables 1 and 2); format: biochemical; settings: Table 1, Lead 1 Analog List
Sequence of nuclease (P03950 25-147): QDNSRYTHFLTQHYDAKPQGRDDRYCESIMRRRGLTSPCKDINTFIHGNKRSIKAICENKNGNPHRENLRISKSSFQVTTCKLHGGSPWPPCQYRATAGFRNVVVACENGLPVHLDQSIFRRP

diluted pancreas lysate = assay: Intactness of total RNA (RNA LabChip), diluted pancreas lysate; format: biochemical, mouse
Protocol: A total of 100 pg/ul e. […].
Pancreatic lysate (0.1 mg/ml) was diluted 1:20,000 in 24 mM Hepes, pH 7.2, 50 mM NaCl, 1 mM MgCl2 and pre-incubated with either 1% SDS or 6.25 mM OVA for 30 s prior to the addition of 2 ug mouse liver total RNA. Reactions were incubated at 25 C for an additional 4 min, quenched, and analyzed on an RNA LabChip.
Mouse pancreatic tissue (5 mg) was disrupted in 50 ul of 24 mM Hepes, pH 7.2, 50 mM NaCl, 1 mM MgCl2. The diluted lysate (1:20,000) was pre-incubated with 50 uM Benzopurpurin B (BpB) for 30 sec and then added to 100 ng/ul mouse liver total RNA (Ambion) and incubated at 23 C for an additional 4 min. Samples were quenched in a guanidinium lysis buffer, and the RNA purified via MEGAclear™ MAG-96 and eluted with 20 ul nuclease-free water. […] These experiments were conducted in the same fashion except that 100 uM BpB was employed. The sample (1 ul) was analyzed by 2100 BioAnalyzer software (Agilent) after separation on an RNA LabChip.
Mouse pancreatic tissue (5 mg) was dounced in 50 ul of 24 mM Hepes, pH 7.2, 50 mM NaCl, 1 mM MgCl2. A diluted lysate (1:20,000) was pre-incubated with 100 uM BpB or the analog Benzopurpurin 4B (Bp4B) for 30 sec and then added to 100 ng/ul mouse liver total RNA (Ambion) and incubated at 23 C for an additional 4 min. Samples were quenched in a guanidinium lysis buffer, and the RNA purified via MEGAclear™ MAG-96 and eluted with 20 ul nuclease-free water. The sample (1 ul) was analyzed by 2100 BioAnalyzer software (Agilent) after separation on an RNA LabChip.
Pancreatic tissue (5 mg) was dounced in 50 ul of 24 mM Hepes, pH 7.2, 50 mM NaCl, 1 mM MgCl2. The lysate was diluted (1:20,000) and then pre-incubated with 200 uM of 467929. […] All samples were pre-incubated for 30 sec before being added to 100 ng/ul mouse liver total RNA (Ambion) and incubated at 23C for an additional 4 min. The RNA was then immediately purified via MEGAclear™ MAG-96 and eluted with 20 ul nuclease-free water. The recovered RNA (1 ul) was analyzed by 2100 BioAnalyzer software after separation on an RNA LabChip.

RNase A = molecular target: T1, RNase A (Bos taurus, UniProt P61823); assay: Radiolabeled RNA probe degradation gel assay, RNase A; format: biochemical
T1 sequence (P61823 27-150): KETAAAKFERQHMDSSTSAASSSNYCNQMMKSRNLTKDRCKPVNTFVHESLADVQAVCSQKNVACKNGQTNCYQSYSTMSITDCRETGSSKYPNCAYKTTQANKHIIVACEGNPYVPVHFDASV
Protocol: as §1, §2, §3, §4, §5

MMLV RT RNase H = MMLV RT RNase H (Moloney murine leukemia virus, UniProt P03355); assay: RT-based RNase H cleavage of RNA:DNA hybrid; format: biochemical
Protocol: As described above, Chembridge compound #467929 offered protection from several RNA-specific endonucleolytic activities. […] A 20-mer DNA oligonucleotide was asymmetrically annealed to a 1500 base synthetic RNA to create an RNA:DNA duplex substrate for RNase H. Reactions were initiated with 10 U of MMLV RT in 1× RT buffer (50 mM TrisCl pH 8.3, 75 mM KC, 3 mM MgCl2, 5 mM DTT) containing 500 ng/ul RNA:DNA hybrid. All reactions contained 5% DMSO either with or without the small molecule RNase inhibitor. Samples were incubated for 5 min at 37 C, and quenched with EDTA. Products were resolved on an RNA LabChip. Cleavage products were observed as two equally represented RNA species of 1000 and 500 bases. Product length and yield were determined using the 2100 BioAnalyzer software (Agilent). Table 18 details the level of inhibition of MMLV RT RNase H that is observed as a function of the concentration of compounds 467929 and 227726.

[1] = system: one-step RT-PCR with MMLV-RT and SuperTaq, human CDC-2 mRNA; assay: One-step qRT-PCR tolerance, human CDC-2; format: biochemical
Protocol: The compatibility of #467929 and 227726 were tested in Ambion's MessageSensor RT-PCR Kit according to the supplier's instructions and using primers/probe designed to amplify a ˜100 nt amplicon from the human CDC-2 mRNA. The reaction conditions were: 20-ul one-step RT-PCR with MMLV-RT (0.4 U/ul final) and SuperTaq (0.04 U/ul final). The cycling conditions were: Stage 1. 42 C for 15 minutes Stage 2. 95 C for 5 min, Stage 3. 95 C-15 sec and 60 C-60 sec where Stage 3 is repeated 40 times. The input template was HeLa-S3 total RNA at either 1 ng or 10 ng/reaction. […] Consequently, these compounds may have utility in controlling any RNA degradation that might occur during the cDNA synthesis step of RT-PCR.

## NP-40
RNase A, 1, and T1
  effect on action of Specific Anti-RNase Cocktail against RNase A, 1, and T1: strengthened the action of Specific Anti-Rnase Cocktail against RNase A, 1, and T1.

## O=C(O)C1=NN(c2ccccc2)C(=O)\C1=C/C=C/C=C/C1C(=O)N(c2ccccc2)N=C1C(=O)O (stereo not drawn) [compound 102704, 4-[5-(3-carboxy-5-oxo-1-phe-nyl-1,5-dihydro-4H-pyra-zol-4-ylidene)-1,3-penta-dien-1-yl]-5-hy-droxy-1-phenyl-1H-pyra-zole-3-carboxylic acid]
DNase I
  DNase inhibition: modestly inhibitory

## C[C@H](CCC(=O)NCCC[N+](C)(C)CCCS(=O)(=O)[O-])[C@H]1CC[C@H]2[C@@H]3[C@H](O)C[C@@H]4C[C@H](O)CC[C@]4(C)[C@H]3C[C@H](O)[C@]12C [CHAPS]
RNase A, 1, and T1
  effect on action of Specific Anti-RNase Cocktail against RNase A, 1, and T1: strengthened the action of Specific Anti-Rnase Cocktail against RNase A, 1, and T1.

## Nc1c(OCC(=O)O)ccc2cc(S(=O)(=O)O)ccc12 [compound 16163]
nuclease
  KI: in-activeat 75uM

## oligovinylsulfonic acid [OVA, reference compound]
Diluted pancreas lysate; 6.25 mM OVA, pancreatic lysate 1:20,000, mouse liver total RNA, 25 C 4 min
  protection of RNA from degradation: help remedy RNA degradation

## O=C(Nc1cc(S(=O)(=O)O)cc2cc(S(=O)(=O)O)cc(O)c12)c1ccccc1 [compound 16169]
nuclease
  KI: in-activeat 75uM

## NC(N)=O [urea]
RNase A
  concentration that inhibited RNase A activity: 6 M urea inhibited RNase A activity. This concentration of urea added to the Specific
RNase A, 1, and T1; 6 M urea added to cocktail
  effect on action of Specific Anti-RNase Cocktail: Anti-Rnase Cocktail strengthened the action of Specific Anti-RNase Cocktail.

## eriochrome black T [erio-chromeblack T]
nuclease
  Ki: 50 µM

## Cc1ccccc1/N=N/c1ccc(/N=N/c2c(O)ccc3cc(S(=O)(=O)O)cc(S(=O)(=O)O)c23)c(C)c1 [compound 45601]
nuclease
  Ki: 122 µM

## Cc1cc(/N=N/c2ccc(S(=O)(=O)O)c3ccccc23)ccc1O [compound 45557]
nuclease
  Ki: > 500 µM

## NCCCCNCCCN [spermidine]
RNase A, 1, and T1; 5 mM spermidine mixed with cocktail
  effect on anti-RNase A, 1, and T1 activity of Specific Anti-RNase Cocktail: 5 Mm spermidine mixed with Specific Anti-RNase Cocktail enhanced anti-RNase

## N#CS.N=C(N)N [guanidine thiocyanate]
RNase A, 1, and T1
  effect on Specific Anti-RNase Cocktail: more inhibitory against different antibodies.

## Nc1cccc(C(=O)Nc2ccc3c(O)cc(S(=O)(=O)O)cc3c2)c1 [compound 1743]
nuclease
  KI: in-activeat 75uM

## Cc1ccc(S(=O)(=O)Nc2ccc(Cc3ccc(NS(=O)(=O)c4ccc(C)cc4)c(C(=O)O)c3)cc2C(=O)O)cc1 [compound 180582, 3,3′-methylenebis(6-[4-meth-ylphenylsulfonyl]a-mino)benzoic acid]
DNase I
  DNase inhibition: little or no DNase inhibition

## cefsulodin [reference compound]
nuclease
  Ki: 201 µM

## Triton X-100
RNase A, 1, and T1
  effect on action of Specific Anti-RNase Cocktail against RNase A, 1, and T1: strengthened the action of Specific Anti-Rnase Cocktail against RNase A, 1, and T1.

## O=C(Nc1ccc(/N=N/c2ccc3cc(S(=O)(=O)O)cc(S(=O)(=O)O)c3c2)cc1)c1ccc(/N=N/c2c(O)ccc3cc(S(=O)(=O)O)cc(S(=O)(=O)O)c23)cc1 [compound 65841]
nuclease
  Ki: 5 µM

## [Cl-].[Cl-].[Mg+2] [MgCl2]
RNase A, 1, and T1; MgCl2 mixed together with cocktail
  effect of mixing with Specific Anti-RNase Cocktail: best

## O=S(=O)(O)c1cc(O)c2c(/N=C/c3ccccc3O)cc(S(=O)(=O)O)cc2c1 [compound 88947]
nuclease
  KI: in-activeat 75uM

## O=C(N/N=C(\c1ccccc1)c1ccncc1)c1ccccc1 [compound 227726, N′-[phenyl(4-pyri-dinyl)meth-ylene]benzohydrazide]
MMLV RT RNase H; inhibitor 100 uM
  % Cleavage: 45%
MMLV RT RNase H; inhibitor 524 uM
  % Cleavage: 43%
MMLV RT RNase H; inhibitor 1000 uM
  % Cleavage: 47%
DNase I
  DNase inhibition: modestly inhibitory
[1]
  concentration tolerated in RT-PCR: at least 1.3 mM
[1]; Input RNA = 1 ng, inhibitor 130 uM
  Cycle Threshold: 26.01 and 26.08
[1]; Input RNA = 1 ng, inhibitor 655 uM
  Cycle Threshold: 26.14 and 26.18
[1]; Input RNA = 1 ng, inhibitor 1.3 mM
  Cycle Threshold: 26.08 and 26.18
[1]; Input RNA = 10 ng, inhibitor 130 uM
  Cycle Threshold: 23.18 and 23.24
[1]; Input RNA = 10 ng, inhibitor 655 uM
  Cycle Threshold: 23.01
[1]; Input RNA = 10 ng, inhibitor 1.3 mM
  Cycle Threshold: 23.02 and 23.04

## O=S(=O)(O)c1ccc(-c2ccc(/N=N/c3c(O)ccc4cc(S(=O)(=O)O)ccc34)cc2)cc1 [D726712]
nuclease
  Ki: ~350 µM

## O=C(O)CC(O)(CC(=O)O)C(=O)O [citrate, reference compound]
Diluted pancreas lysate; 50 mm citrate, pancreas lysate 1:20,000, e. coli total rna, room temperature 4 min
  protection of total RNA from degradation: significant protection

## CC(=O)Nc1ccc(N=Nc2c(S(=O)(=O)O)cc3cc(S(=O)(=O)O)cc(NC(C)=O)c3c2O)cc1 [acid violet7, acid violet 7]
nuclease
  Ki: 71 µM

## O=C(COc1ccc(I)cc1)c1c(O)cc(O)cc1O [compound 140553, 2-(4-iodo-phenoxy)-1-(2,4,6-tri-hydroxyphenyl)etha-none]
DNase I
  DNase inhibition: little or no DNase inhibition

## Cc1ccc(C)n1-c1cccc(C(=O)O)c1 [compound 128773, 3-(2,5-dimethyl-1H-pyr-rol-1-yl)benzoic acid]
DNase I
  DNase inhibition: modestly inhibitory
